Results from patent US9057727B2, “Screening methods using G-protein coupled receptors and related compositions” (The General Hospital Corporation, priority 2007, dated 2015).
“Also recorded” adds a separate entry of the source. Square brackets hold non-standard residues; d marks the D form. Peptide text beside a SMILES is read from it. hArg = N=C(N)NCCCC[C@H](N)C(=O)O; Aib = CC(C)(N)C(=O)O

Legend:
[1] = Plasma cAMP in mice after subcutaneous injection; assay type: in vivo
Protocol: FIGS. 9A-9D are graphs showing in vivo plasma cAMP levels in mice treated with PTH analogs. Wild-type mice were injected subcutaneously with vehicle (0.9% NaCl/0.05% Tween-20), or vehicle containing a PTH peptide at a dose-level of 10 to 1,000 nmol of peptide per kg of body weight, and at indicated times after injection, blood was withdrawn from the tail vein, and the amount of cAMP in the resulting plasma was quantified by radioimmuno assay. Each curve corresponds to a peptide at a defined concentration, as indicated in the graph keys. The plasma cAMP concentrations are plotted as picomole per μl plasma.
(§1) Wild-type mice were injected subcutaneously with vehicle (0.9% NaCl/0.05% Tween-20), or vehicle containing a PTH peptide so as to achieve a concentration ranging from 10 to 1000 nmol/kg of body weight. At the indicated times after injection, blood was withdrawn from the tail vein, and the amount of cAMP in the resulting plasma was quantified by radioimmuno assay (FIGS. 9A-9D).
as §1, with “at” for “so as to achieve”, “dose level of” for “concentration ranging from”, “At” for “At the”, “assay. Ionized calcium in serum was measured as above and phosphate was measured by a U.V. spectroscopic kit assay.” for “assay (FIGS. 9A-9D).”

[2] = Plasma phosphate and serum ionized calcium in mice after subcutaneous injection; assay type: in vivo; conditions: 50 nmol/kg s.c.
Protocol: FIGS. 10A and 10B are graphs showing in vivo plasma phosphate and serum ionized calcium levels in mice treated with PTH analogs. […] Serum ionized calcium concentrations were determined using a Chiron Diagnostics Model 634 Ca^++/pH analyzer. Data in A are means (±s.e.m.) of one experiment using six mice (n=6) for each injection condition; similar results were obtained in three other experiments. Data in B are means (±s.e.m.) of two experiments, each performed using triplicate mice (n=3) for each injection condition.
The mice were further analyzed for changes in plasma phosphate and serum ionized calcium concentrations. […] At the indicated times after injection, blood was withdrawn from the tail vein and the concentrations of plasma phosphate (FIG. 10A) and serum ionized calcium (FIG. 10B) were determined. Serum ionized calcium concentrations were determined using a Chiron Diagnostics Model 634 Ca^++/pH analyzer. Plasma phosphate concentrations were measured using a Phosphorous Liqui-UV assay kit (StanBio Laboratory, Boerne, Tex.).
as §1, with “at” for “so as to achieve”, “dose level of” for “concentration ranging from”, “At” for “At the”, “assay. […]” for “assay (FIGS. 9A-9D).”

[3] = test system: NaPi-IIa; assay: NaPi-IIa staining in renal PT cells of injected mice; conditions: mouse, in vivo
From the text: To help elucidate further the signaling mechanisms by which PTH ligands regulate renal phosphate transport, we developed a derivative of M-PTH(1-28) that is defective for PLC/PKC signaling, yet retains potent cAMP/PKA signaling activity. Such a peptide allows for study of the relative roles of the PKA and PKC signaling pathways in modulating the function and surface expression of the Pi transporters NaPi-IIa and NaPi-IIc in proximal tubule (PT) cells. The analog M-PTH(1-28) (M=Ala^1,Aib^3,Gln^10, Har^11,Trp^14,Arg^19), a potent agonist for cAMP and IP3 signaling pathways, induces, when injected into mice, prolonged hypophosphatemic and hypercalcemic effects.
(§2) To impair PLC signaling, we replaced alanine at position 1 of M-PTH(1-28) with tryptophan, in accordance with findings of Bisello and colleagues (J Biol Chem 277:38524-30, 2002) showing that such bulky substitutions at this position selectively impair PLC signaling.

[4] = target: T1, ROS 17/2.8 cells (endogenous rat PTHR) (Rattus norvegicus, UniProt P25961); assay: Acute cAMP response in ROS 17/2.8 rat osteoblastic cells; assay type: cell-based; conditions: 10^−7 M, hPTH(1-28) 10^−6 M, basal 3.7±0.4
T1 construct: the rat osteoblastic cell line ROS17/2.8, which endogenously expresses the rat PTHR; endogenous in cells; host or cells: ROS 17/2.8 rat osteosarcoma cells (membranes or intact cells)
T1 sequence (P25961 27-591): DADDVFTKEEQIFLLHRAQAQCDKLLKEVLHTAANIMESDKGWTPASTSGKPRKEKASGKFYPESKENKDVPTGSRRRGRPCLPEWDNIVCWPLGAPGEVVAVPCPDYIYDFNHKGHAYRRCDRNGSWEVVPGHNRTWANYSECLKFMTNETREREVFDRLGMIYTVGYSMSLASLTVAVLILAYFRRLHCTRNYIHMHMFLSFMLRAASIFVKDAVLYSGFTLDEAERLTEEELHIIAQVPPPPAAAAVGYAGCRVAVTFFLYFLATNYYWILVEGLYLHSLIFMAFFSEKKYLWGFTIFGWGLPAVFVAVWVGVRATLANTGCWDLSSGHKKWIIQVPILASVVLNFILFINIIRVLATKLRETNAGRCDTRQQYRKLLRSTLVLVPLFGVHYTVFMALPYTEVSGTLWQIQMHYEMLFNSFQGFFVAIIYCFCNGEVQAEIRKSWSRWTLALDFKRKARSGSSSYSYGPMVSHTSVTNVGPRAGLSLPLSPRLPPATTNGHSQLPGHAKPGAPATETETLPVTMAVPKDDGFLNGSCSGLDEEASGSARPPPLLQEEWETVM
Protocol: The resulting intracellular cAMP formed was quantified by radioimmuno assay. […] Curve fits were obtained by non-linear regression analysis.
The data in FIG. 21B are expressed as a percent of the maximum response observed for each ligand, determined by incubating the cells with ligand in the presence of IBMX for 10 minutes (no ligand wash-out).

[5] = test system: LLC-PK1 cells expressing NaPi-IIc transporter and the rat PTHR; assay: 32P uptake in LLC-PK1 cells expressing NaPi-IIc transporter and rat PTHR; assay type: cell-based
From the text: as §2

[6] = test system: opossum kidney (OK) cell line; assay: Phosphate uptake inhibition in opossum kidney cells; assay type: cell-based; conditions: 10 minute exposure, 1×10^−7 M
Protocol: Data are means (±s.e.m.) of two experiments, each performed in duplicate.
Inhibition of phosphate uptake was assessed using the opossum kidney (OK) cell line, which are derived from the renal proximal tubule.
Cells were treated for 10 minutes at 37° C. with media (vehicle) or media containing a peptide ligand (1×10^−7 M); then (t=0), the cells were then rinsed three times with media and incubated in alone at 37° C. for varying times. At each time point, ^32PO4 was then added to the media, and after five minutes of incubation, the cells were washed, lysed, and the lysate was counted for ^32P beta radioactivity by liquid scintillation counting.

[7] = test system: NaPi-IIc; assay: NaPi-IIc immunostaining in renal PT cells of injected mice; assay type: in vivo; conditions: interval 4 to 6 h
From the text: as §2

[8] = Plasma phosphate in mice (20 nmol/kg); assay type: in vivo
From the text: as §2

[9] = target: T2, PTHR lacking the extracellular N-terminal (N) domain (delNT) (Homo sapiens, UniProt Q03431); assay: cAMP activity in cells expressing PTHR lacking the N domain (delNT); assay type: cell-based
T2 construct: expressed in transfected cells
T2 sequence (Q03431 with tags, fused parts or gaps limits assumed): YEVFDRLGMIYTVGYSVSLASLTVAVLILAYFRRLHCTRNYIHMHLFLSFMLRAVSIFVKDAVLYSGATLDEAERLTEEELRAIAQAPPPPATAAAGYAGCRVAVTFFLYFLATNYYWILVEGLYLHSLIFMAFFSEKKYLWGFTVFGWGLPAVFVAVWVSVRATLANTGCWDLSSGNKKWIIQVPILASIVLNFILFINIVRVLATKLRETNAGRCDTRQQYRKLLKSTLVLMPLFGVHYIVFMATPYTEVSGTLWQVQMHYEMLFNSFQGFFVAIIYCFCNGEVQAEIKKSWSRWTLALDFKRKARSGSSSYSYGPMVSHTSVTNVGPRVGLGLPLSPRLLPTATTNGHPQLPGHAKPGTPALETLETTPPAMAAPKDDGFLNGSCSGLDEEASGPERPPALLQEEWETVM

[10] = test system: MC3T3-E1 cells; assay: Prolonged cAMP response after ligand wash-out in MC3T3-E1 cells; assay type: cell-based
From the text: as §2

[11] = target: T3, rat PTHR (Rattus norvegicus, UniProt P25961); assay: cAMP formation in HEK-293 cells transfected with rat PTHR; assay type: cell-based; conditions: versus M-PTH(1-28)
T3 sequence (P25961 27-591): T1 sequence (P25961 27-591)
From the text: as §2

[12] = target: T3, rat PTHR; assay: IP3 formation in HEK-293 cells transfected with rat PTHR; assay type: cell-based; conditions: versus M-PTH(1-28)
From the text: as §2

Row | Compound | dose producing comparable increase in plasma cAMP [1] [nmol/kg] | duration of serum calcium and plasma phosphate responses, in words [2] | apical and cytoplasmic NaPi-IIa staining, in words [3] | maximum cAMP response (ligand with IBMX 10 minutes, no wash-out) [4] [pmole/well] | ^32P uptake, in words [5] | duration of phosphate uptake inhibition, in words [6] | NaPi-IIc immunostaining, in words [7] | time of maximal suppression of plasma phosphate [8] [h] | time of recovery of plasma phosphate to vehicle control levels [8] [h] | cAMP potency on delNT compared with PTH counterparts, in words [9] | cAMP response after ligand wash-out, in words [10] | potency for stimulating cAMP formation, in words [11] | fold less potent than parent peptide for stimulating IP3 formation [12]
1 | CC[C@H](C)[C@H](NC(=O)[C@H](CCC(=O)O)NC(=O)C(C)(C)NC(=O)[C@@H](NC(=O)[C@H](C)N)C(C)C)C(=O)N[C@@H](CCC(N)=O)C(=O)N[C@@H](CC(C)C)C(=O)N[C@@H](CCSC)C(=O)N[C@@H](Cc1c[nH]cn1)C(=O)N[C@@H](CCC(N)=O)C(=O)N[C@@H](CCCCNC(=N)N)C(=O)N[C@@H](C)C(=O)N[C@@H](CCCCN)C(=O)N[C@@H](Cc1c[nH]c2ccccc12)C(=O)N[C@@H](CC(C)C)C(=O)N[C@@H](CC(N)=O)C(=O)N[C@@H](CO)C(=O)N[C@@H](CCSC)C(=O)N[C@@H](CCCNC(=N)N)C(=O)N[C@@H](CCCNC(=N)N)C(=O)N[C@H](C(=O)N[C@@H](CCC(=O)O)C(=O)N[C@@H](Cc1c[nH]c2ccccc12)C(=O)N[C@@H](CC(C)C)C(=O)N[C@@H](CCCNC(=N)N)C(=O)N[C@@H](CCCCN)C(=O)N[C@@H](CCCCN)C(=O)N[C@@H](CC(C)C)C(N)=O)C(C)C [[A^1,Aib^3,M]-PTH(1-28), [Ala^1,12,Aib^3,Gln^10,homoarginine^11,Trp^14,Arg^19]human(h)PTH(1-28)NH2] (H-AV[Aib]EIQLMHQ[hArg]AKWLNSMRRVEWLRKKL-NH2; N-terminus assumed) | 50 | more prolonged than those to hPTH(1-34)NH2 | prolonged reductions in NaPi-IIa immunoreactivity; also recorded: remained reduced for at least six hours | 71±1 | inhibited | dramatically prolonged inhibitory effect on phosphate uptake | reduced | 2 | 6 |  |  |  | 
2 | PTHrP(1-14) (AVSEHQLLHDKGKS) |  |  |  |  |  |  |  |  |  | much less potent for cAMP activity |  |  | 
3 | Trp^1-M-PTH(1-28) |  |  | remained reduced for at least six hours |  | failed to inhibit |  | unchanged | 2 | 6 |  | retained the capacity to produce a prolonged cAMP response | about as potent as M-PTH(1-28) | at least 100 fold
